“Also recorded” adds a separate entry of the source. Where two headings read alike, the source gives them in different places.
Tests used:
RXRα:RXRα homodimer = biological target: T1, RXRα:RXRα homodimer (Homo sapiens, UniProt P19793); assay: Gal4-receptor chimera transactivation assay, RXR homodimer; details: for Fold activation: CV-1 cells, 100 nM LG100268, LGD1069, n.e. = no effect; for Fold activation / Fold Repression: 500 nM Compounds 117, 122, 130, 1 mM Compound 131; for agonist activity on RXR homodimers in the GAL4 transfection assay (in words): compound alone; for antagonist activity on RXR homodimers in the GAL4 transfection assay (in words) / Fold Repression: in combination with either LGD1069 or LG100268
T1 sequence (P19793 227-458 limits assumed): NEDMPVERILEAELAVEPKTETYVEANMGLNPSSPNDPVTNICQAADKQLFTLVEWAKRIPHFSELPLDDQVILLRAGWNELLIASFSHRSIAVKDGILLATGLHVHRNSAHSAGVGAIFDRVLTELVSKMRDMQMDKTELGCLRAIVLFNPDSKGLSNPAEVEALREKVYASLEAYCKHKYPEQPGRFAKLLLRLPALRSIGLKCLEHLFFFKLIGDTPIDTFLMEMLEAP
Description: Briefly, CV-1 cells were transfected in 12 well multi-well plates using 0.1 μg of each receptor and 0.5 μg of reporter per well. Each well was also transfected with 0.5 μg of the β-Gal expression plasmid as an internal control for transfection efficiency. Total plasmid per well was 2 μg made up using the plasmid pGEM. […] Receptor ligand binding domains (LBDs) were fused in-frame downstream to the Gal4 cDNA to produce Gal4-receptor fusion proteins. To express only the receptor LBDs, the LBD was cloned directly downstream to the CMV promoter.
Cells were then washed 2X with PBS and lysed using Promega lysis buffer and assayed for luciferase activity and β-galactosidase activity. All results were normalized against β-Gal. Each set was done in triplicates and each experiment was carried out at least 3 separate times with similar results.

RXRα:RARα heterodimer = biological target: T2, RXRα:RARα heterodimer (Homo sapiens, UniProt P19793); assay: Gal4-receptor chimera transactivation assay, RXRα:RARα heterodimer; details: for effect on RXRα:RARα heterodimer in combination with TTNPB (in words): combined with the RXR:RAR activator TTNPB, data not shown; for agonist activity on RXRα:RARα heterodimers (in words): compound alone
T2 sequence (P19793 227-458 limits assumed): T1 sequence (P19793 227-458 limits assumed)
T2 sequence (P10276 183-417 partner limits assumed): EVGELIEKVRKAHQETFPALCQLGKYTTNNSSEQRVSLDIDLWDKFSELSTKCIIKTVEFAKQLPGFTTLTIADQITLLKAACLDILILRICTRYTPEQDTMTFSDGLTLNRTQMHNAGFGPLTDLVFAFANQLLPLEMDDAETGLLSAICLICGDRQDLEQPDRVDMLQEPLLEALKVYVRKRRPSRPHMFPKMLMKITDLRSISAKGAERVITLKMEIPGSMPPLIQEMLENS

RXRγ [1] = biological target: T3, RXRγ (Mus musculus, UniProt P28705); assay: RXR binding, RXRγ; details: -v- tritiated LGD1069 and tritiated 9-cis retinoic acid
T3 sequence (P28705 1-463): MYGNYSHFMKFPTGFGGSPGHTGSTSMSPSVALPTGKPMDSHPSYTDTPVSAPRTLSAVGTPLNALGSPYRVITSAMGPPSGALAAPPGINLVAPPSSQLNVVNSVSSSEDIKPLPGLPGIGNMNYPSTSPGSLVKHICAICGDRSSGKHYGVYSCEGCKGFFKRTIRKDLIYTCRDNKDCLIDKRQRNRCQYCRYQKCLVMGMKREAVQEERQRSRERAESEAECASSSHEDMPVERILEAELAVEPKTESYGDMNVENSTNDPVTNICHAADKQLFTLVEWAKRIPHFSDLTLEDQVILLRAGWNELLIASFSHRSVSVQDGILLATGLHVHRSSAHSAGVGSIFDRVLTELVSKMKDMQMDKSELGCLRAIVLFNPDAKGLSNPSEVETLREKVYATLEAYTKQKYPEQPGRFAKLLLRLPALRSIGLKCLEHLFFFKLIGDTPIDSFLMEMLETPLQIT
Description: (§1) Non-specific binding was defined as that binding remaining in the presence of 500 nM of the appropriate unlabelled compound. At the end of the incubation period, bound from free ligand were separated. The amount of bound tritiated retinoids was determined by liquid scintillation counting of an aliquot (700 μL) of the supernatant fluid or the hydroxylapatite pellet.
(§2) After correcting for non-specific binding, IC50 values were determined. […] The IC50 value was determined graphically from a log-logit plot of the data. The Kd values were determined by application of the Cheng-Prussof equation to the IC50 values, the labeled ligand concentration and the Kd of the labeled ligand.

RXRα:PPARα heterodimer = biological target: T4, RXRα:PPARα heterodimer (Homo sapiens, UniProt P19793); assay: RXR heterodimer co-transfection assay (RXRα and PPARα, PPARα response element reporter); details: for Fold activation: normalized luciferase values at 10−5M divided by values with vehicle
T4 sequence (P19793 1-462): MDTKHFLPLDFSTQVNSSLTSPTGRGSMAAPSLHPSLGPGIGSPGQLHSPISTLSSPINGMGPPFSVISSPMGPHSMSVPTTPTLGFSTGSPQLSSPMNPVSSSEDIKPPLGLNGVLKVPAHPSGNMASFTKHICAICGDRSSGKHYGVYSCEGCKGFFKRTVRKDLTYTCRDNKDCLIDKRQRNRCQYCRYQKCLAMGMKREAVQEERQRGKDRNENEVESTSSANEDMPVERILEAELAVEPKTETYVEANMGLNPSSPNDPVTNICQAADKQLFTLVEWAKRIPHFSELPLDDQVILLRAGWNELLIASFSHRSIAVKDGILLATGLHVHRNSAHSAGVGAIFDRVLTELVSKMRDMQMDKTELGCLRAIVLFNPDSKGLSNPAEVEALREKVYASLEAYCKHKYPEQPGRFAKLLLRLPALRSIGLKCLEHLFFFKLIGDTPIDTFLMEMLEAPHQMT
T4 sequence (Q07869 1-468 partner): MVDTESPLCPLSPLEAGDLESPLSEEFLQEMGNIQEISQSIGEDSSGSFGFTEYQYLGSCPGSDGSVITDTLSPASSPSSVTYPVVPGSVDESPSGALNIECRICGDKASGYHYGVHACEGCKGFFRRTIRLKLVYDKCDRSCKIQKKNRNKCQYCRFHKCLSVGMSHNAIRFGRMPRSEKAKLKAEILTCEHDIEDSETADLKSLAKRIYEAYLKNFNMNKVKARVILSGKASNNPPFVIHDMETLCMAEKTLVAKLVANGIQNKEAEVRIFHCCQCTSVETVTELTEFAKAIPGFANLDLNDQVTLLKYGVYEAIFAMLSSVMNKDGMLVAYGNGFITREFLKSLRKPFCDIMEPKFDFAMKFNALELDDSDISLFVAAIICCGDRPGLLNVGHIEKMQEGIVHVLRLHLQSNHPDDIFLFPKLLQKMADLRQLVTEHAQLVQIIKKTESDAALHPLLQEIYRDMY

RXRα [2] = biological target: T5, RXRα (Homo sapiens, UniProt P19793); assay: RXR binding, RXRα; details: -v- tritiated LGD1069 and tritiated 9-cis retinoic acid
T5 sequence (P19793 1-462): T4 sequence (P19793 1-462)
Description: as §1, §2

RXRβ [3] = biological target: T6, RXRβ (Mus musculus, UniProt P28704); assay: RXR binding, RXRβ; details: -v- tritiated LGD1069 and tritiated 9-cis retinoic acid
T6 sequence (P28704 1-520): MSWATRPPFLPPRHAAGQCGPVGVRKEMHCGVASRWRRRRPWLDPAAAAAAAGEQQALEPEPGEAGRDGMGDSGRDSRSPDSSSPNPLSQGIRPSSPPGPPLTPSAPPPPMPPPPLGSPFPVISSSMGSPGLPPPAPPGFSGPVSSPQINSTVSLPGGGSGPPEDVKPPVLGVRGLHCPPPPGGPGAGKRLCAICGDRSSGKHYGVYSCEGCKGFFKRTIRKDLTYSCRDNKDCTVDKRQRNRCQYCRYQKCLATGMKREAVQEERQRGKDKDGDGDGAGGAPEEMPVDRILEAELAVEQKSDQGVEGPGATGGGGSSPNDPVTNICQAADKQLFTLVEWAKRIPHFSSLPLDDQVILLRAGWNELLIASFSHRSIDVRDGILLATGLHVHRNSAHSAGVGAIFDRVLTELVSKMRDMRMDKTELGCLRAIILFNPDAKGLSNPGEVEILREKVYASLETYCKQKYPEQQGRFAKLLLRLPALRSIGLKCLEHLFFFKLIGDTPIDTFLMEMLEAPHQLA
Description: as §1, §2

RXR:RXR homodimer = biological target: T7, RXR:RXR homodimer (Homo sapiens, UniProt P19793); assay: RXR homodimer co-transfection assay (FIG. 1); details: in the presence of known RXR activators (LGD1069, LG100268, 9-cis retinoic acid)
T7 sequence (P19793 1-462): T4 sequence (P19793 1-462)

NB4 cells = assay: NB4 myeloid leukemic cell differentiation; assay type: cell-based; details: Compound 122 1 mM; TTNPB, 9-cis retinoic acid, LG100268 100 nM; FIG. 3
Description: All points were performed in triplicate for each experiment and varied less than 20%. Each experiment was repeated at least three times with similar results.

RXRα [4] = biological target: T5, RXRα; assay: RXR homodimer co-transfection assay, antagonist mode, RXRα; details: read-out: RXRα Potency IC50; antagonist potency in the presence of the known RXR agonist LGD1069; CV-1 cells
RXRβ [5] = biological target: T6, RXRβ; assay: RXR homodimer co-transfection assay, antagonist mode, RXRβ; details: read-out: RXRβ Potency IC50; antagonist potency in the presence of the known RXR agonist LGD1069; CV-1 cells
RXRγ [6] = biological target: T3, RXRγ; assay: RXR homodimer co-transfection assay, antagonist mode, RXRγ; details: read-out: RXRγ Potency IC50; antagonist potency in the presence of the known RXR agonist LGD1069; CV-1 cells

Compound	Fold activation (RXRα:RXRα homodimer)	agonist activity on RXR homodimers in the GAL4 transfection assay (in words) (RXRα:RXRα homodimer)	antagonist activity on RXR homodimers in the GAL4 transfection assay (in words) (RXRα:RXRα homodimer)	Fold Repression (RXRα:RXRα homodimer) [fold]	Fold Repression (RXRα:RARα heterodimer; CV-1 cells, 500 nM Compound 117, in combination with TTNPB) [fold]	effect on RXRα:RARα heterodimer in combination with TTNPB (in words) (RXRα:RARα heterodimer)	agonist activity on RXRα:RARα heterodimers (in words) (RXRα:RARα heterodimer)	melting point	Kd (RXRγ [1]) [nM]	EC50 (RXRα:PPARα heterodimer) [nM]	Fold activation (RXRα:PPARα heterodimer) [fold]	Kd (RXRα [2]) [nM]	Kd (RXRβ [3]) [nM]	antagonism of RXR homodimer transactivation (in words) (RXR:RXR homodimer)	differentiation of NB4 cells (in words) (NB4 cells)	IC50 (RXRα [4]) [nM]	EC50 (RXRα:PPARα heterodimer; read-out: EC50 (agonist potency), CV-1 cell transfected with both RXRα and PPARα) [nM]	IC50 (RXRβ [5]) [nM]	IC50 (RXRγ [6]) [nM]
4-[(3-hexyloxy-5,6,7,8-tetrahydro-5,5,8,8-tetramethyl-2-naphthyl)carbonyl]benzoic acid oxime [Compound 114]									38		4	9	12	function as antagonists		126	200	197	206
CC1(C)CCC(C)(C)c2cc3c(cc21)CCCN3Cc1ccc(C(=O)O)cc1 [Compound 135, 4-(3,4,6,7,8,9-hexahydro-6,6,9,9-tetramethyl-2H-benzo[g]quinolin-1-ylmethyl)benzoic acid]								173 to 175 °C	181		5	163	155	function as antagonists					
CC1=C(/C=C/C(C)=C\C=C\C(C)=C\C(=O)O)C(C)(C)CCC1 [9-cis retinoic acid]															stimulate NB4 cells to differentiate				

Continued by falling Kd (RXRγ [1]), values first:

Fold activation (RXRα:RXRα homodimer)	agonist activity on RXR homodimers in the GAL4 transfection assay (in words) (RXRα:RXRα homodimer)	antagonist activity on RXR homodimers in the GAL4 transfection assay (in words) (RXRα:RXRα homodimer)	Fold Repression (RXRα:RXRα homodimer) [fold]	Fold Repression (RXRα:RARα heterodimer; CV-1 cells, 500 nM Compound 117, in combination with TTNPB) [fold]	effect on RXRα:RARα heterodimer in combination with TTNPB (in words) (RXRα:RARα heterodimer)	agonist activity on RXRα:RARα heterodimers (in words) (RXRα:RARα heterodimer)	melting point	Kd (RXRγ [1]) [nM]	EC50 (RXRα:PPARα heterodimer) [nM]	Fold activation (RXRα:PPARα heterodimer) [fold]	Kd (RXRα [2]) [nM]	Kd (RXRβ [3]) [nM]	antagonism of RXR homodimer transactivation (in words) (RXR:RXR homodimer)	Compound	differentiation of NB4 cells (in words) (NB4 cells)	IC50 (RXRα [4]) [nM]	EC50 (RXRα:PPARα heterodimer; read-out: EC50 (agonist potency), CV-1 cell transfected with both RXRα and PPARα) [nM]	IC50 (RXRβ [5]) [nM]	IC50 (RXRγ [6]) [nM]
n.e.	inactive	weak antagonist	1.3		slight increase in activation	potent agonists		107	800	7	140	105	function as antagonists	CC1(C)CCC(C)(C)c2cc3c(cc21)CCC=C3Cc1ccc(C(=O)O)cc1 [Compound 131, 4-(3,4,5,6,7,8-hexahydro-5,5,8,8-tetramethyl-anthracen-1-ylmethyl)benzoic acid]					
								33				29		CCCOc1cc2c(cc1\C(C)=C/C=C/C(C)=C/C(=O)O)C(C)(C)CCC2(C)C [Compound 122, (2E, 4E, 6Z)-7-[3-propoxy-5,5,8,8-tetramethyl-5,6,7,8-tetrahydro-2-naphthalen-2-yl]-3-methylocta-2,4,6-trienoic acid]	stimulate NB4 cells to differentiate; also recorded: equally, if not more effective in promoting differentiation of NB4 cells				
n.e.	inactive	moderate antagonist	1.5	1.4	weak repressor	inactive	199 to 205 °C (dec.)	17	900	9	3	17	function as antagonists	CC1(C)CCC(C)(C)c2cc(C(=NO)c3ccc(C(=O)O)cc3)c(OCc3ccccc3)cc21 [Compound 117, cis-4-[(3-benzyloxy-5,6,7,8-tetrahydro-5,5,8,8-tetramethyl-2-naphthyl)carbonyl]benzoic acid oxime]					
								6			3	8	especially potent antagonist	CCCCCCCOc1c(\C(C)=C/C=C/C(C)=C/C(=O)O)cc(C(C)C)cc1C(C)C [Compound 147, (2E, 4E, 6Z)-7-(3,5-diisopropyl-2-n-heptyloxyphenyl)-3-methylocta-2,4,6-trienoic acid]					
